Experimental data reported in patent US12390470B2, “1-methylxanthine-based bioactive composition and method of use thereof” (Ingenious Ingredients, LP, priority 2021, dated 2025).

Assays:
participants = test: Respiratory quotient, placebo-controlled crossover; type: in vivo, human
Procedure: All supplements were orally ingested with 8 fluid ounces of cold tap water. The order of administration for all interventions was randomized using a random allocation software to ensure randomization and to avoid order effects. After ingestion, participants completed all assessments in an identical fashion 30, 60, 90, 120, and 180 minutes after ingestion of their assigned supplement. All study visits took place between 0600-1000 hours. At least 72 hours of rest will take place between each condition.
The lower the RQ, the more fat that is being oxidized for body energy needs. The closer to 1.0 the more carbohydrate is being burned for energy needs. If numbers are lower more fat is being oxidized.

male Swiss Albino mice [1] = test: Forced swim test; type: in vivo
Procedure: (§1) Twenty-four 8-week-old male Swiss Albino mice were housed in an animal room at a constant temperature (22±3° C.) and humidity (30%-70%) under a 12:12 h light-dark cycle with standard laboratory diet (Purina 5L79, Rat and Mouse 18% protein; PMI Nutrition International, Brentwood, MO, USA). Distilled water was provided ad libitum. All animal experiments were reviewed and approved by the Institutional Animal Ethical Committee (IAEC) of Radiant Research Services Pvt. Ltd (Bangalore, India). All research was conducted in accordance with the guidelines of the committee for the purpose of control and supervision of experiments on animals.
(§2) After one week of acclimation, the animals were randomly divided by body weight into three groups (n=8 per group in each test) for oral treatment once a day, at approximately same time each day (±1 hour), for 28 consecutive days: (1) vehicle control or (2) 1-methylxanthine or (3) 1-methylxanthine plus paraxanthine. The dose administered to the mice was calculated using US Food and Drug Administration for human equivalence doses (HED), assuming a human weight of 60 kg. The following HED was used in this study: 100 mg 1-methylxanthine (Ingenious Ingredients, L.P Lewisville, TX, USA; mouse dose: 20.5 mg/kg bw/day), or 100 mg 1-methylxanthine (Ingenious Ingredients, L.P Lewisville, TX, USA; mouse dose: 20.5 mg/kg bw/day) plus 100 mg paraxanthine (ENFINITY™, Ingenious Ingredients, L.P Lewisville, TX, USA; mouse dose: 20.5 mg/kg bw/day). 0.5% Carboxy Methyl Cellulose sodium was used as vehicle and the test item formulations were prepared daily. Dosing was conducted via oral gavage using disposable polypropylene syringes with sterilized stainless steel gavage tubes. Food intake was monitored daily while water intake was ad libitum.
During treatment period, training was accomplished on a swimming chamber at a moderate room temperature for 15 mins. The animals were adapted to this procedure daily 1 hr after dosing for 5 days in a week during the treatment period. On 28th day of respective treatment of all the animals were subjected to force swim test. Animals were forced to swim individually for 30 min in a glass jar of height 20 cm, diameter 10 cm, and filled with fresh water to a depth of 15 cm at room temperature. The parameters measured were first occurrence of climbing (the period the animal tries to climb the wall of the chamber), duration of immobility (the total time during which the animal is immobile) and total time spent in active swimming (the total duration during which the animal swims throughout the experimental period).

male Swiss Albino mice [2] = test: Cook's pole climbing test, scopolamine-induced amnesia; type: in vivo
Procedure: Behavioral studies were conducted in mice to examine the learning and memory ability by using Cook's pole and Passive shock avoidance test.
as §1
as §2, with “7” for “28”, “Dosing was conducted via oral gavage using disposable polypropylene syringes with sterilized stainless steel gavage tubes.” left out
Mice were trained in such a way that the animal had to climb the pole (shock free zone) within 30 seconds to avoid a shock. […] At particular intervals, 20 trials were given for each animal and average of the shock avoidance and mistakes were recorded. […]

female wistar rats = conditions: rat, in vivo, 14 days
Procedure: An acute oral toxicity study of 1-Methylxanthine) was conducted in female wistar rats in accordance with OECD 423 guidelines. Rats were administered a single dose of 2,000 mg/kg orally and then observed individually for the first four hours, then over a period of 24 hours and once daily for 14 days. General behavior, adverse effects and mortality were observed throughout the experimental period. Body weights were recorded on test day 0 (prior to administration), day 3, day 7 and day 14. All the animals were necropsied and examined macroscopically. All the surviving animals had gained body weight by day 14 as compared to day 0. […] Based on the results, the median lethal dose of test substance in female rats after single oral treatment is 2,000 mg/kg body weight and is classified as category 5 and safe.

Cn1c(=O)[nH]c2nc[nH]c2c1=O [1-methylxanthine, 1-Methyl-3H-purine-2,6-dione]
respiratory quotient reduced compared to placebo (participants; 200 mg oral): 15% | greater fat loss than CA (participants; 200 mg oral, from respiratory quotient): 2.3% | Respiratory Quotient MEAN (30-180) (participants; Average): 0.685 | Respiratory Quotient MEAN (30-180) (participants; Person one): 0.676 | Respiratory Quotient (participants; Person one, 30 min after ingestion): 0.69 | Respiratory Quotient (participants; Person one, 60 min): 0.66 | Respiratory Quotient (participants; Person one, 90 min): 0.67 | Respiratory Quotient (participants; Person one, 120 min): 0.69 | Respiratory Quotient (participants; Person one, 180 min): 0.67 | Respiratory Quotient (participants; Person one, time 0, 200 mg oral): 0.67 | Respiratory Quotient MEAN (30-180) (participants; Person two): 0.694 | Respiratory Quotient (participants; Person two, 30 min): 0.72 | Respiratory Quotient (participants; Person two, 60 min): 0.71 | Respiratory Quotient (participants; Person two, 90 min): 0.66 | Respiratory Quotient (participants; Person two, 120 min): 0.68 | Respiratory Quotient (participants; Person two, 180 min): 0.70 | Respiratory Quotient (participants; Person two, time 0, 200 mg oral): 0.70 | Duration of immobility (male Swiss Albino mice [1]; 30 min forced swim, day 28): 9.74 ± 0.79 min | duration of mobility/active swimming (male Swiss Albino mice [1]; 30 min forced swim, day 28): 20.26 ± 0.79 min | number of climbing (male Swiss Albino mice [1]; forced swim, day 28): 6.7±1.16 | Duration of immobility lower compared to control (male Swiss Albino mice [1]; mouse, in vivo): 5.4% | duration of mobility/active swimming greater compared to control (male Swiss Albino mice [1]; mouse, in vivo): 2.8% | number of climbing improved compared to control (male Swiss Albino mice [1]; mouse, in vivo): 6.0% | Overall outcome on energy, endurance, mood (male Swiss Albino mice [1]; summary): showed improved energy and endurance, improved mood | Escape latency faster than control (male Swiss Albino mice [2]; Cook's pole): 14.9% | Escape latency, Cook's pole climbing test (male Swiss Albino mice [2]; mice, oral 7 days, scopolamine): 10.13 ± 0.83 s | Overall outcome on amnesia, memory and learning (male Swiss Albino mice [2]; summary of Cook's pole and passive shock avoidance tests): showed reversal of amnesia induced by scopolamine and improved memory and learning | toxicity classification (female wistar rats): category 5 | median lethal dose (female wistar rats; po): 2,000 mg/kg body weight
